Assay results reported in ChEMBL document CHEMBL1201862, “PubChem BioAssay data set” (2004).
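Assay format: 96-well plates, 48-hour exposure. GI50 is the concentration that inhibits growth by half.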 Activity calls are given as the source filed them. No stated cut-off is given here; in the data, active = GI50 up to about 1.1 µM and inactive = higher.

Assays:
Test in all cases: NCI anticancer screen, dose series, 48 h
786-0 = test system: 786-0
COLO 205 = test system: COLO 205
HCC 2998 = test system: HCC 2998
K562 = test system: K562
KM-20L2 = test system: KM-20L2
Malme-3M = test system: Malme-3M
NCI-H226 = test system: NCI-H226
NCI-H23 = test system: NCI-H23
OVCAR-5 = test system: OVCAR-5
SF-295 = test system: SF-295
SF-539 = test system: SF-539
SK-OV-3 = test system: SK-OV-3
SN12C = test system: SN12C
SNB-19 = test system: SNB-19
SNB-75 = test system: SNB-75
SR = test system: SR
CCRF-CEM = test system: CCRF-CEM

Measured: GI50

NCCCNCCSSCCCCS(=O)O
inactive: 786-0 > 100 µM | COLO 205 16.4 µM | HCC 2998 > 100 µM | K562 24.3 µM | KM-20L2 > 100 µM | Malme-3M 20.3 µM | NCI-H226 57.8 µM | NCI-H23 17.7 µM | OVCAR-5 55.1 µM | SF-295 36.2 µM | SF-539 80 µM | SK-OV-3 > 100 µM | SN12C 39.6 µM | SNB-19 > 100 µM | SNB-75 30.8 µM | SR 3.37 µM

Cc1ccc(C)c(NC(=O)CCc2nnc(S)[nH]2)c1
inactive: 786-0 > 100 µM | CCRF-CEM > 100 µM | COLO 205 > 100 µM | HCC 2998 > 100 µM | K562 > 100 µM | KM-20L2 > 100 µM | Malme-3M > 100 µM | NCI-H226 > 100 µM | NCI-H23 > 100 µM | OVCAR-5 > 100 µM | SF-295 > 100 µM | SF-539 > 100 µM | SK-OV-3 > 100 µM | SN12C > 100 µM | SNB-19 > 100 µM | SNB-75 > 100 µM | SR 6.43 µM

Cn1cc(C(=O)NCCC(=N)N)cc1NC(=O)C1=[N+](C)C=C(NC(=O)c2cccc(C(=O)NC3=CC(C(=O)Nc4cc(C(=O)NCCC(=N)N)cn4C)=[N+](C)C3)c2)C1
inactive: 786-0 37.8 µM | CCRF-CEM > 100 µM | COLO 205 50.7 µM | HCC 2998 99.8 µM | K562 83.8 µM | KM-20L2 > 100 µM | Malme-3M 24.8 µM | NCI-H226 > 100 µM | NCI-H23 > 100 µM | SF-295 > 100 µM | SF-539 41.2 µM | SK-OV-3 > 100 µM | SN12C 88.5 µM | SNB-19 > 100 µM | SNB-75 > 100 µM | SR > 100 µM

Cc1ccc(S(=O)(=O)c2ccc(NC(=O)SCCC(=O)O)cc2)cc1
inactive: 786-0 > 100 µM | CCRF-CEM > 100 µM | COLO 205 > 100 µM | HCC 2998 > 100 µM | K562 > 100 µM | KM-20L2 > 100 µM | NCI-H226 > 100 µM | NCI-H23 > 100 µM | OVCAR-5 > 100 µM | SF-295 > 100 µM | SF-539 > 100 µM | SN12C > 100 µM | SNB-19 > 100 µM | SNB-75 17.8 µM | SR > 100 µM

Cc1cccc(C)c1NC(=O)C(=O)CC(=O)c1cccc([N+](=O)[O-])c1
inactive: 786-0 > 100 µM | CCRF-CEM > 100 µM | COLO 205 > 100 µM | K562 > 100 µM | KM-20L2 > 100 µM | Malme-3M > 100 µM | NCI-H226 > 100 µM | NCI-H23 > 100 µM | OVCAR-5 > 100 µM | SF-295 > 100 µM | SF-539 > 100 µM | SN12C > 100 µM | SNB-19 > 100 µM | SNB-75 > 100 µM | SR > 100 µM

CC(C)(C)c1cc(Cc2ccc([N+](C)(C)C)cc2)c(O)c(C(C)(C)C)c1
inactive: 786-0 24.2 µM | CCRF-CEM 12.5 µM | HCC 2998 15.7 µM | K562 9.59 µM | KM-20L2 21.9 µM | Malme-3M 17.9 µM | NCI-H23 17.7 µM | OVCAR-5 22.2 µM | SF-295 26.3 µM | SF-539 16.5 µM | SK-OV-3 25.2 µM | SN12C 14.9 µM | SNB-19 12.9 µM | SNB-75 9.2 µM | SR 14.1 µM

COc1ccc(S(=O)(=O)NNS(C)(=O)=O)cc1
inactive: 786-0 > 100 µM | CCRF-CEM 70 µM | COLO 205 > 100 µM | HCC 2998 > 100 µM | K562 > 100 µM | KM-20L2 > 100 µM | Malme-3M > 100 µM | NCI-H226 > 100 µM | NCI-H23 > 100 µM | SF-295 > 100 µM | SF-539 > 100 µM | SN12C > 100 µM | SNB-19 > 100 µM | SNB-75 > 100 µM | SR > 100 µM

CC(Oc1ccc2c(=O)cc(-c3ccccc3)oc2c1)C(=O)O (stereo not drawn)
inactive: 786-0 > 100 µM | CCRF-CEM > 100 µM | COLO 205 > 100 µM | HCC 2998 > 100 µM | K562 > 100 µM | KM-20L2 > 100 µM | Malme-3M > 100 µM | NCI-H226 > 100 µM | NCI-H23 > 100 µM | SF-295 > 100 µM | SF-539 > 100 µM | SK-OV-3 > 100 µM | SN12C > 100 µM | SNB-19 > 100 µM | SNB-75 > 100 µM | SR > 100 µM

Brc1ccc(/C=N/C23CC4CC(CC(C4)C2)C3)cc1
inactive: 786-0 > 100 µM | CCRF-CEM > 100 µM | COLO 205 > 100 µM | HCC 2998 > 100 µM | K562 > 100 µM | KM-20L2 > 100 µM | Malme-3M > 100 µM | NCI-H226 > 100 µM | NCI-H23 > 100 µM | OVCAR-5 > 100 µM | SF-295 > 100 µM | SF-539 > 100 µM | SK-OV-3 > 100 µM | SN12C > 100 µM | SNB-19 > 100 µM | SNB-75 > 100 µM

COc1ccc(NC(=O)COC(=O)c2cccc3c(=O)c4ccccc4[nH]c23)cc1
inactive: 786-0 19.1 µM | CCRF-CEM 13.8 µM | COLO 205 17.8 µM | HCC 2998 51.1 µM | K562 17.2 µM | KM-20L2 21.5 µM | Malme-3M 23.4 µM | NCI-H226 23.1 µM | NCI-H23 15.1 µM | SF-295 19.5 µM | SF-539 18.1 µM | SK-OV-3 30.2 µM | SN12C 27.5 µM | SNB-19 30.1 µM | SNB-75 21 µM | SR 11.3 µM

Cc1ccc(C)c(N2C(=O)C(=O)C(c3nc4ccccc4s3)C(=O)C2=O)c1
inactive: 786-0 > 100 µM | CCRF-CEM > 100 µM | COLO 205 > 100 µM | HCC 2998 > 100 µM | K562 > 100 µM | KM-20L2 > 100 µM | Malme-3M > 100 µM | NCI-H226 > 100 µM | NCI-H23 > 100 µM | OVCAR-5 71.8 µM | SF-295 > 100 µM | SF-539 > 100 µM | SK-OV-3 > 100 µM | SN12C > 100 µM | SNB-19 > 100 µM | SNB-75 > 100 µM

CNC(=S)OCCC(C)CCCC(C)C (stereo not drawn)
inactive: 786-0 17.2 µM | CCRF-CEM 19.4 µM | HCC 2998 18 µM | K562 13.7 µM | KM-20L2 16.3 µM | Malme-3M 21.5 µM | NCI-H23 18.8 µM | OVCAR-5 11.3 µM | SF-295 21.5 µM | SF-539 16.8 µM | SK-OV-3 20.9 µM | SN12C 16.3 µM | SNB-19 16.9 µM | SNB-75 20.8 µM | SR 14 µM

CC(=O)Nc1ccc(-c2nnc(SCC(=O)Nc3ccc(C)cc3)o2)cc1
inactive: 786-0 17 µM | CCRF-CEM 24.3 µM | COLO 205 17.7 µM | K562 42.4 µM | KM-20L2 19.5 µM | Malme-3M 15.7 µM | NCI-H226 27.5 µM | NCI-H23 15.7 µM | OVCAR-5 19.6 µM | SF-295 16.6 µM | SF-539 13.5 µM | SK-OV-3 49.2 µM | SN12C 15.8 µM | SNB-75 16.4 µM | SR 28 µM
